From patent US10982284B2, “Compositions and methods APC, CREB, and BAD pathways to assess and affect cancer” (H. Lee Moffitt Cancer Center and Research Institute, Inc., priority 2011, dated 2021)
pIC50: −log10 of the molar value.

Experiments:
Test in all cases: CellTiter-Blue cell viability assay
Assay type in all cases: cell-based, human
TOV112D = TOV112D ovarian cancer cell line, 72 hours, 50% reduction in growth/viability
Text: (§1) Ovarian cancer cell lines were obtained from the American Type Culture Collection (Manassas, Va.) (CAOV3, OV90, OVCAR3, SKOV3, TO[…]); from the European Collection of Cell Cultures, Salisbury, UK (A2780CP, A2780S); or from Kyoto University, Kyoto, Japan ([…], Tyknu, and TyknuC is R) or were kind gifts from Dr. Patricia Kruk, Department of Pathology, College of Medicine, University of South Florida, Tampa, Fla., and Susan Murphy, PhD, Dept of OBGYN/Division of GYN Oncology, Duke University, Durham, N.C. […] Cell lines were maintained in RPMI-1640 (Invitrogen, Carlsbad, Calif.) supplemented with 10% fetal bovine serum (Fisher Scientific, Pittsburgh, Pa.), 1% sodium pyruvate, 1% penicillin/streptomycin (Cellgro, Manassas, Va.), and 1% nonessential amino acids (HyClone, Hudson, N.H.). Mycoplasma testing was performed every 6 months following manufacturer's protocol (Lonza, Rockland, Me.). Drug activity was evaluated using a high-throughput CellTiter-Blue cell viability assay. […] After cell adherence, increasing concentrations of cisplatin, carboplatin (Sigma-Aldrich, St. Louis, Mo.), paclitaxel (Sequoia Research Products Ltd., Pangbourne, UK), or carboplatin plus paclitaxel (carbotaxol: constant molar ratio of carboplatin to paclitaxel of 20,000:1) were added to appropriate wells using an automated pipetting station. Four replicate wells were used for each drug concentration and vehicle controls. […] The cells were incubated with the drug for 72 hours, and 5 μL of CellTiter-Blue reagent (Promega Corp) was added to each well. Fluorescence was read at […] using a Synergy 4 microplate reader (Bio-Tek Instruments, Inc., Winooski, Vt.).

IGR-OV1 = IGR-OV1 ovarian cancer cell line, 72 hours, 50% reduction in growth/viability
Text: as §1

OVCA432 = OVCA432 ovarian cancer cell line, 72 hours, 50% reduction in growth/viability
Text: as §1

MCAS = MCAS ovarian cancer cell line, 72 hours, 50% reduction in growth/viability
Text: as §1

OV90 = OV90 ovarian cancer cell line, 72 hours, 50% reduction in growth/viability
Text: as §1

CAOV3 = CAOV3 ovarian cancer cell line, 72 hours, 50% reduction in growth/viability
Text: as §1

OVCA433 = OVCA433 ovarian cancer cell line, 72 hours, 50% reduction in growth/viability
Text: as §1

Dov13 = Dov13 ovarian cancer cell line, 72 hours, 50% reduction in growth/viability
Text: as §1

C13 = C13 ovarian cancer cell line, 72 hours, 50% reduction in growth/viability
Text: as §1

OVCAR4 = OVCAR4 ovarian cancer cell line, 72 hours, 50% reduction in growth/viability
Text: as §1

SKOV3 = SKOV3 ovarian cancer cell line, 72 hours, 50% reduction in growth/viability
Text: as §1

Ovary1847 = Ovary1847 ovarian cancer cell line, 72 hours, 50% reduction in growth/viability
Text: as §1

HeyA8 = HeyA8 ovarian cancer cell line, 72 hours, 50% reduction in growth/viability
Text: as §1

M41 = M41 ovarian cancer cell line, 72 hours, 50% reduction in growth/viability
Text: as §1

BG1 = BG1 ovarian cancer cell line, 72 hours, 50% reduction in growth/viability
Text: as §1

OVCAR8 = OVCAR8 ovarian cancer cell line, 72 hours, 50% reduction in growth/viability
Text: as §1

OVCA429 = OVCA429 ovarian cancer cell line, 72 hours, 50% reduction in growth/viability
Text: as §1

CAOV2 = CAOV2 ovarian cancer cell line, 72 hours, 50% reduction in growth/viability
Text: as §1

Tyknu = Tyknu ovarian cancer cell line, 72 hours, 50% reduction in growth/viability
Text: as §1

CHI = CHI ovarian cancer cell line, 72 hours, 50% reduction in growth/viability
Text: as §1

A2780S = A2780S ovarian cancer cell line, 72 hours, 50% reduction in growth/viability
Text: as §1

A2008 = A2008 ovarian cancer cell line, 72 hours, 50% reduction in growth/viability
Text: as §1

OV2008 = OV2008 ovarian cancer cell line, 72 hours, 50% reduction in growth/viability
Text: as §1

OVCAR2 = OVCAR2 ovarian cancer cell line, 72 hours, 50% reduction in growth/viability
Text: as §1

CHIcisR = CHIcisR ovarian cancer cell line, 72 hours, 50% reduction in growth/viability
Text: as §1

A2780CP = A2780CP ovarian cancer cell line, 72 hours, 50% reduction in growth/viability
Text: as §1

M41CSR = M41CSR ovarian cancer cell line, 72 hours, 50% reduction in growth/viability
Text: as §1

N.N.O=C([O-])C1(C(=O)[O-])CCC1.[Pt+2] [Carboplatin, carboplatin]
pIC50 (TOV112D): 4.12 | pIC50 (IGR-OV1): 4.18 | pIC50 (OVCA432): 4.20 | pIC50 (MCAS): 3.63 | pIC50 (OV90): 3.67 | pIC50 (CAOV3): 4.16 | pIC50 (OVCA433): 3.57 | pIC50 (Dov13): 3.98 | pIC50 (C13): 4.25 | pIC50 (OVCAR4): 4.14 | pIC50 (SKOV3): 3.61 | pIC50 (Ovary1847): 3.76 | pIC50 (HeyA8): 3.54 | pIC50 (M41): 4.38 | pIC50 (BG1): 3.84 | pIC50 (OVCAR8): 4.25 | pIC50 (OVCA429): 3.65 | pIC50 (CAOV2): 4.15 | pIC50 (Tyknu): 5.02 | pIC50 (CHI): 4.63 | pIC50 (A2780S): 4.61 | pIC50 (A2008): 4.69 | pIC50 (OV2008): 4.35 | pIC50 (OVCAR2): 4.34 | pIC50 (CHIcisR): 4.70 | pIC50 (A2780CP): 4.03 | pIC50 (M41CSR): 4.32

CC(=O)O[C@H]1C(=O)[C@@]2(C)[C@H]([C@H](OC(=O)c3ccccc3)[C@]3(O)C[C@H](OC(=O)[C@H](O)[C@@H](NC(=O)c4ccccc4)c4ccccc4)C(C)=C1C3(C)C)[C@]1(OC(C)=O)CO[C@@H]1C[C@@H]2O [Paclitaxel, paclitaxel]
pIC50 (TOV112D; Homo sapiens): 6.96 | pIC50 (IGR-OV1; Homo sapiens, IGROV-1): 7.43 | pIC50 (OVCA432; Homo sapiens): 8.20 | pIC50 (MCAS; Homo sapiens): 8.54 | pIC50 (OV90; Homo sapiens, OV-90): 6.97 | pIC50 (CAOV3; Homo sapiens, Caov-3): 8.34 | pIC50 (OVCA433; Homo sapiens): 8.68 | pIC50 (Dov13; Homo sapiens): 7.76 | pIC50 (C13; Homo sapiens): 8.49 | pIC50 (OVCAR4; Homo sapiens, OVCAR-4): 7.75 | pIC50 (SKOV3; Homo sapiens, SK-OV-3): 7.05 | pIC50 (Ovary1847; Homo sapiens): 8.25 | pIC50 (HeyA8; Homo sapiens, HEY A8): 7.76 | pIC50 (M41; Homo sapiens): 8.20 | pIC50 (BG1; Homo sapiens, BG-1): 8.26 | pIC50 (OVCAR8; Homo sapiens, OVCAR-8): 8.24 | pIC50 (OVCA429; Homo sapiens): 8.54 | pIC50 (CAOV2; Homo sapiens): 7.69 | pIC50 (Tyknu; Homo sapiens): 8.08 | pIC50 (CHI; Homo sapiens): 9.00 | pIC50 (A2780S; Homo sapiens): 8.62 | pIC50 (A2008; Homo sapiens): 8.24 | pIC50 (OV2008; Homo sapiens): 7.86 | pIC50 (OVCAR2; Homo sapiens): 8.55 | pIC50 (CHIcisR; Homo sapiens): 8.74 | pIC50 (A2780CP; Homo sapiens, A2780C/P): 8.40 | pIC50 (M41CSR; Homo sapiens): 8.60
